Active and inactive are the calls of the source. No cut-off for these calls is given here.
Columns and labels:
HT-29 [1] = assay: Anti-necroptosis activity against human HT-29 cells assessed as inhibition of TSZ-induced necroptosis preincubated for 30 mins followed by compound addition and measured for 16 hrs by Cell-titer-glo assay; assay type: functional, cell-based
HT-29 [2] = assay: Cytotoxicity against human HT-29 cells assessed as reduction in cell viability measured for 16 to 24 hrs by Cell-titer-glo assay; assay type: functional; details: time 16-24 hrs
HT-29 [3] = assay: Cytotoxicity against human HT-29 cells assessed as reduction in cell viability at 100 uM measured for 16 to 24 hrs by Cell-titer-glo assay; assay type: functional, cell-based; details: time 16-24 hrs
[4] = target: T1, Receptor-interacting serine/threonine-protein kinase 1 (Homo sapiens, UniProt Q13546); assay: Binding affinity to recombinant RIPK1 (unknown origin) assessed as dissociation constant by kinomescan assay
T1 sequence (Q13546 whole entry): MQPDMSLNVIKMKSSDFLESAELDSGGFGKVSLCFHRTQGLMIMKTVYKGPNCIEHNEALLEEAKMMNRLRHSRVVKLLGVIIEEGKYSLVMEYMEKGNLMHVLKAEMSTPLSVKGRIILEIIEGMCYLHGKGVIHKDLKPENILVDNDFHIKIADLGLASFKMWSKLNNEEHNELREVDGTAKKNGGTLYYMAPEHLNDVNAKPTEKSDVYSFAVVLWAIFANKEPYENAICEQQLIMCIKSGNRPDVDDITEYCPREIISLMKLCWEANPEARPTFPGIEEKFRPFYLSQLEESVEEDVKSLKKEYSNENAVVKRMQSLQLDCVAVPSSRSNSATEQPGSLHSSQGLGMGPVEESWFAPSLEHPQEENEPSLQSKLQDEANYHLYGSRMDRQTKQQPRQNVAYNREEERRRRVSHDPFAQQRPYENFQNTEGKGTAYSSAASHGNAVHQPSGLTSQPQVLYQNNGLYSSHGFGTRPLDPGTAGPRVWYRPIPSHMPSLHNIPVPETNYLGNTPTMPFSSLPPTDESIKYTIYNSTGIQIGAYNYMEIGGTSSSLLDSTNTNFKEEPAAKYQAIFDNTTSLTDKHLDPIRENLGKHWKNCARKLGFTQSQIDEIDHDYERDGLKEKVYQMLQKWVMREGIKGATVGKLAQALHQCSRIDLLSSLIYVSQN

L929 = assay: Anti-necroptosis activity against TNFalpha-induced mouse L929 cells assessed as cell viability preincubated for 1 hr followed by TNFalpha stimulation and measured after 18 hrs by Cell-titer-glo assay; assay type: functional, cell-based
[5] = Half life in mouse; assay type: ADME, organism-based; details: in vivo
HT-29 [6] = assay: Anti-necroptosis activity against human HT-29 cells assessed as inhibition of TSZ-induced necroptosis pretreated with compound followed by TSZ induction and measured for 12 hrs by Cell-titer-glo assay; assay type: functional, cell-based; details: dose 0.63-100 nM

SMILES | EC50 (HT-29 [1]) | CC50 (HT-29 [2]) | Activity (HT-29 [3]) | Kd [4] | EC50 (L929) | half-life [5] | Activity (HT-29 [6])
CN1C(=S)[C@@H](NC(=O)c2n[nH]c(Cc3ccccc3)n2)COc2ccc(C#Cc3ccc(F)cc3)cc21 | 22.5 nM | > 100 µM | inactive |  |  |  | 
CN1C(=S)[C@@H](NC(=O)c2n[nH]c(Cc3ccccc3)n2)COc2ccc(C#CC3CC3)cc21 | 8.7 nM | > 100 µM |  | 40 nM |  |  | 
CN1C(=S)[C@@H](NC(=O)c2n[nH]c(Cc3ccccc3)n2)COc2ccc(C#Cc3ccccc3OC(F)(F)F)cc21 | 36.2 nM | > 100 µM | inactive |  |  |  | 
COC(=O)c1cccc(C#Cc2ccc3c(c2)N(C)C(=S)[C@@H](NC(=O)c2n[nH]c(Cc4ccccc4)n2)CO3)c1 | 10.8 nM | > 100 µM | inactive | 160 nM |  |  | 
COc1cccc(C#Cc2ccc3c(c2)N(C)C(=S)[C@@H](NC(=O)c2n[nH]c(Cc4ccccc4)n2)CO3)c1 | 11.1 nM | > 100 µM | inactive |  |  |  | 
Cc1ccccc1C#Cc1ccc2c(c1)N(C)C(=S)[C@@H](NC(=O)c1n[nH]c(Cc3ccccc3)n1)CO2 | 23.3 nM | > 100 µM | inactive |  |  |  | 
CN1C(=S)[C@@H](NC(=O)c2n[nH]c(Cc3ccccc3)n2)COc2ccc(C#Cc3ccccc3F)cc21 | 32.3 nM | > 100 µM | inactive |  |  |  | 
COc1ccc(C#Cc2ccc3c(c2)N(C)C(=S)[C@@H](NC(=O)c2n[nH]c(Cc4ccccc4)n2)CO3)cc1 | 299 nM | > 100 µM | inactive |  |  |  | 
CN1C(=S)[C@@H](NC(=O)c2n[nH]c(Cc3ccccc3)n2)COc2ccc(C#Cc3ccccc3C#N)cc21 | 7.7 nM | > 100 µM | inactive | 78 nM |  |  | 
CN1C(=S)[C@@H](NC(=O)c2n[nH]c(Cc3ccccc3)n2)COc2ccc(C#Cc3cccc(C(F)(F)F)c3)cc21 | 47.8 nM | > 100 µM | inactive |  |  |  | 
COC(=O)c1ccc(C#Cc2ccc3c(c2)N(C)C(=S)[C@@H](NC(=O)c2n[nH]c(Cc4ccccc4)n2)CO3)cc1 | 5.8 nM | > 100 µM | inactive | 83 nM |  |  | 
CN1C(=S)[C@@H](NC(=O)c2n[nH]c(Cc3ccccc3)n2)COc2ccc(C#Cc3ccc(OC(F)(F)F)cc3)cc21 | 10.4 nM | > 100 µM | inactive |  |  |  | 
CN1C(=S)[C@@H](NC(=O)c2n[nH]c(Cc3ccccc3)n2)COc2ccc(C#Cc3cccc(F)c3)cc21 | 22.6 nM | > 100 µM | inactive |  |  |  | 
Cc1cccc(C#Cc2ccc3c(c2)N(C)C(=S)[C@@H](NC(=O)c2n[nH]c(Cc4ccccc4)n2)CO3)c1 | 27.6 nM | > 100 µM | inactive |  |  |  | 
CN1C(=O)[C@@H](NC(=O)c2nnc(Cc3ccccc3)[nH]2)COc2ccc(C#CC(C)(C)O)cc21 [OCADUSERTIB] |  |  |  |  | < 1 nM |  | 
COc1ccccc1C#Cc1ccc2c(c1)N(C)C(=S)[C@@H](NC(=O)c1n[nH]c(Cc3ccccc3)n1)CO2 | 10.7 nM | > 100 µM | inactive |  |  |  | 
CN1C(=S)[C@@H](NC(=O)c2n[nH]c(Cc3ccccc3)n2)COc2ccc(C#Cc3ccccc3C(F)(F)F)cc21 | 41.3 nM | > 100 µM | inactive |  |  |  | 

SMILES | EC50 (HT-29 [1]) | CC50 (HT-29 [2]) | Activity (HT-29 [3]) | Kd [4] | EC50 (L929) | half-life [5] | Activity (HT-29 [6])
CN1C(=S)[C@@H](NC(=O)c2n[nH]c(Cc3ccccc3)n2)COc2ccccc21 |  | > 100 µM |  |  |  |  | 
CN1C(=S)[C@@H](NC(=O)c2n[nH]c(Cc3ccccc3)n2)COc2ccc(C#Cc3ccccc3[N+](=O)[O-])cc21 | 15.1 nM | > 100 µM | inactive |  |  |  | 
CN1C(=S)[C@@H](NC(=O)c2n[nH]c(Cc3ccccc3)n2)COc2ccc(C#C[Si](C)(C)C)cc21 | 20.5 nM | > 100 µM | inactive |  |  |  | 
CN1C(=S)[C@@H](NC(=O)c2n[nH]c(Cc3ccccc3)n2)COc2ccc(C#Cc3cccc(Cl)c3)cc21 | 23.9 nM | > 100 µM | inactive |  |  |  | 
CN1C(=S)[C@@H](NC(=O)c2n[nH]c(Cc3ccccc3)n2)COc2ccc(C#Cc3ccc([N+](=O)[O-])cc3)cc21 | 6.8 nM | > 100 µM | inactive | 150 nM |  |  | 
CN1C(=S)[C@@H](NC(=O)c2n[nH]c(Cc3ccccc3)n2)COc2ccc(C#Cc3ccccc3)cc21 | 12.7 nM | > 100 µM | inactive |  |  |  | 
COC(=O)c1ccccc1C#Cc1ccc2c(c1)N(C)C(=S)[C@@H](NC(=O)c1n[nH]c(Cc3ccccc3)n1)CO2 | 32.9 nM | > 100 µM | inactive |  |  |  | 
CN1C(=S)[C@@H](NC(=O)c2n[nH]c(Cc3ccccc3)n2)COc2ccc(C#Cc3ccccc3Cl)cc21 | 14 nM | > 100 µM | inactive |  |  |  | 
CN1C(=S)[C@@H](NC(=O)c2n[nH]c(Cc3ccccc3)n2)COc2ccc(C#Cc3cccc(OC(F)(F)F)c3)cc21 | 27 nM | > 100 µM | inactive |  |  |  | 
CN1C(=S)[C@@H](NC(=O)c2n[nH]c(Cc3ccccc3)n2)COc2ccc(C#Cc3cccc([N+](=O)[O-])c3)cc21 | 9.2 nM | > 100 µM | inactive | 230 nM |  |  | 
CN1C(=O)[C@@H](NC(=O)c2n[nH]c(Cc3ccccc3)n2)COc2ccc(N3CC4(CCOCC4)C3)cc21 |  |  |  |  | < 1 nM |  | 
CN1C(=S)[C@@H](NC(=O)c2n[nH]c(Cc3ccccc3)n2)COc2ccc(C#Cc3ccc(Cl)cc3)cc21 | 31.3 nM | > 100 µM | inactive |  |  |  | 
CN1C(=S)[C@@H](NC(=O)c2n[nH]c(Cc3ccccc3)n2)COc2ccc(C#Cc3ccc(C#N)cc3)cc21 | 6.3 nM | > 100 µM | inactive | 92 nM |  |  | 
CN1C(=S)[C@@H](NC(=O)c2n[nH]c(Cc3ccccc3)n2)COc2ccc(C#Cc3ccc(C(F)(F)F)cc3)cc21 | 25.5 nM | > 100 µM | inactive |  |  |  | 
CN1C(=O)C(Cc2c[nH]c3ccccc23)NC1=S (stereo unspecified) [NECROSTATIN] |  |  |  |  |  | < 5 min | 
Cc1ccc(C#Cc2ccc3c(c2)N(C)C(=S)[C@@H](NC(=O)c2n[nH]c(Cc4ccccc4)n2)CO3)cc1 | 17.4 nM | > 100 µM | inactive |  |  |  | Dose-Dependent Effect
CN1C(=S)[C@@H](NC(=O)c2n[nH]c(Cc3ccccc3)n2)COc2ccc(C#CCc3ccccc3)cc21 | 14.3 nM | > 100 µM | inactive |  |  |  | 
